# Read-outs that look alike come from different tables or passages of the source.
# Key:
# [1] = system: Hela cervical cancer cell line; experiment: In vitro proliferation inhibition of Hela cervical cancer cell line (MTT method); type: cell-based; conditions: for IC50: Hela cervical cancer cell line
# Method: Evaluation of In Vitro Antitumor Activity of Hela Cervical Cancer Tumor Cell Lines with Compounds (MTT Method)
# The cells were cultured in RPMI1640 medium containing 200 mL/L fetal bovine serum so that the cells were kept at logarithmic growth. The cells were inoculated to 96-well plate, with a density of 4˜8×10^4/ml, 37° C., and pre-cultured for 24 hours with added drugs. The drugs were set at 6 concentrations, each has 3 holes. After 48 hours of consequent effect, the nutrient solution was then removed and the cells were left for air-drying. Each hole was then added with cold 500 g/L trichloroacetic acid (TCA) 50 μL (final concentration of 100 g/L). After setting for 60 minutes, it was then rinsed for 4-5 times with ionized water and dried. Each hole then was added with 4 g/L SRB 100 μL left for 30 mins. Then it was rinsed with 10 mL/L acetic acid for 4 times, dried. Then 10 mmol Tris-base 200 μL per hole was added, then shaked and mixed, subsequently, oscillating on the plate oscillator for 5 min. The enzyme-linked immunoassay was used to determine the A value. To calibrate, a blank control was used, with a wavelength of 490 nm. Tumor inhibition rate (%)=(Average A value of the control cell hole−Average A value of the drugged hole A)/Average A value of the control cell hole×100%. The positive control cell holes were CA4, CB1, and CB1N. To calculate the IC50 value, the Logit method was used according to the cell growth inhibition rate of different concentrations of the drug.
# [2] = system: human lung cancer cell A549; experiment: In vitro antitumor activity on tumor cell lines (CCK-8 method), A549; type: cell-based; conditions: A549, 72 hours
# Method: (§1) Evaluation of In Vitro Antitumor Activity of Compounds on Multiple Tumor Cell Lines (CCK-8 Method)
# (§2) Take the living cells with more than 90% cells for testing. The cell proliferation inhibition test was performed using the EnoGeneCell™ Counting Kit-8 (CK-8) cell viability test kit. The cell was digested, counted and prepared into a cell suspension with a concentration of 1×10^5/mL. 100 μL cell suspension (1×10^4 cells per hole) was added to each hole in the 96-well plate. The 96-well plate was cultured in a 37° C., 5% CO2 incubator for 24 hours. With every hole added with 100 μL respective drugged cultured medium, control groups were set up, including negative control group, solvent control group, and positive control group. Each group has 5 holes. The 96-well plates were cultured at 37° C., in 5% CO2 incubator for 72 hours. Afterward, 10 μL CCK-8 solution was added to each hole, and the culture plate was incubated in the incubator for 4 hours, and the OD value at 450 nm was determined by enzyme labeling instrument. The inhibition rate and IC50 value of these compounds on tumor cells such as human gastric cancer cell MGC-803, human liver cancer cell HepG2, human lung cancer cell A549 and human breast cancer cell MDA-MB-231 were calculated.
# [3] = system: human gastric cancer cell MGC-803; experiment: In vitro antitumor activity on tumor cell lines (CCK-8 method), MGC-803; type: cell-based; conditions: MGC-803, 72 hours
# Method: as §1, §2
# [4] = system: human liver cancer cell HepG2; experiment: In vitro antitumor activity on tumor cell lines (CCK-8 method), HepG2; type: cell-based; conditions: HepG2, 72 hours
# Method: as §1, §2
# in vivo = conditions: both, Kunming, mouse, po
# Method: (§3) Acute Toxicity Test of Single Gastric Administration in Mice
# (§4) Kunming mice (weight 17-22 g, equal male and female) were randomly grouped according to body weight, with 10 mice maximum per dose group in the experiment. […] Given by single intraperitoneal injection and a single intragastric injection, observations were done after 0.25 h, 0.5 h, 1 h, 2 h, 4 h, and 24 h respectively. The mortality rate was recorded. Afterward, the groups were observed once everyday, and the mortality rate was recorded for 14 days. On day 15, the living mice were sacrificed for pathological dissection.
# [5] = system: human breast cancer cell MDA-MB-231; experiment: In vitro antitumor activity on tumor cell lines (CCK-8 method), MDA-MB-231; type: cell-based; conditions: MDA-MB-231, 72 hours
# Method: as §1, §2
# [6] = system: gastric cancer MGC-803 transplanted tumor; experiment: Antitumor rate of oral administration in mice with MGC-803 transplanted tumor; type: in vivo; conditions: for Tumor inhibition rate (%): d0-d12 every 2 days, 7 times, tumor weight; for tumor size course: about 8 days after administration
# Method: Antitumor rate of oral administration of the compound towards MGC-803 mice with transplanted tumor
# After 1 week of adaptation, the mice were inoculated with gastric cancer MGC-803 tumor tissue subcutaneously. After the tumor grew for 100-300 mm^3, the animals were randomly grouped. For the drug group, each group of each compound had 6 mice, and 12 mice were in the control group. The intragastric administration was employed and the dosage of Ii, Ij, Ik and Il was 25 and 50 mg/kg. The positive control was CA4, the administration time was d0, d2, d4, d6, d8, d10, d12 days, 7 times in total. The tumor size was measured 3 times per week, together with mice weight. The mice were executed 14 days after inoculation and the tumor mass was taken and measured for its weight. The tumor inhibition rate was calculated as tumor weight inhibition rate, and the formula is tumor weight inhibition rate %=(1-treatment group average tumor weight/control group average tumor weight)×100%.
# [7] = single intragastric administration, mice
# Method: as §3, §4
# [8] = Homo sapiens, 48 hours drug exposure, read-out: IC50
# [9] = Homo sapiens, read-out: IC50 values, Hela proliferation inhibition
# [10] = 48 hours drug exposure, read-out: IC50
Structure (SMILES),"IC50 [1, 8] [µM]",IC50 ([2]; Homo sapiens) [µM],IC50 ([3]; Homo sapiens) [µM],IC50 ([4]; Homo sapiens) [µM],IC50 ([5]; Homo sapiens) [µM],other results
"COc1ccc(/C=C\c2cc(OC)c(OC)c(OC)c2)cc1O [CA4, combretastatin A-4, reference compound]",0.4,0.00254,0.0206,1280,0.0033,"IC50 [1, 9]: 0.4 µM; LD50 (in vivo): 1280 mg/kg"
"COc1ccc(CCc2cc(OC)c(OC)c(OC)c2)cc1NC(=O)CCn1cc(F)c(=O)[nH]c1=O [Compound Id, 3-(5-fluoro-2,4-dioxo-3,4-dihydropyrimidin-1(2H)-yl) N-(5-(3,4,5-trimethoxyphenethyl)-2-methoxyphenyl)-propanamide]",,,,,,"IC50 [1, 10]: 0.0298 µM; IC50 [2]: 38 µM; IC50 [3]: 50.6 µM; IC50 [4]: 110 µM; IC50 [5]: 70.2 µM"
"COc1ccc(CCc2cc(OC)c(OC)c(OC)c2)cc1NC(=O)Cn1cc(F)c(=O)[nH]c1=O [Compound Ib, 2-(5-fluoro-2,4-dioxo-3,4-dihydropyrimidin-1(2H)-yl)-N-(5-(3,4,5-trimethoxyphenethyl)-2-methoxyphenyl)-acetamide]",0.0291,< 0.19,1.86,< 0.19,3.21,
"COc1ccc(CCc2cc(OC)c(OC)c(OC)c2)cc1OC(=O)Cn1cc(F)c(=O)[nH]c1=O [Compound Ij, 2-methoxy-5-(3,4,5-trimethoxyphenethyl)-phenyl-2-(5-fluoro-2,4-dioxo-3,4-dihydropyrimidin-1(2H)-yl)acetate]",,,,,,"IC50 [1, 10]: 0.0323 µM; IC50 [2]: < 0.0003 µM; IC50 [3]: < 0.0003 µM; IC50 [4]: 0.141 µM; Tumor inhibition rate (%) ([6]; 25 mg/kg intragastric): 53%; Tumor inhibition rate (%) ([6]; 50 mg/kg intragastric): 80%; tumor size course [6]: tendency to shrink; LD50 [7]: 1015 mg/kg; IC50 [5]: 15.4 µM"
"COc1ccc(CCc2cc(OC)c(OC)c(OC)c2)cc1OC(=O)CCn1cc(F)c(=O)[nH]c1=O [Compound Il, 5-(3,4,5-trimethoxyphenethyl)-2-methoxyphenyl-3-(5-fluoro-2,4-dioxo-3,4-dihydropyrimidin-1(2H)-yl)propanoate]",0.0296,< 0.0003,< 0.0003,0.0004,0.00025,LD50 at 14 days (in vivo): > 1000 mg/kg; Tumor inhibition rate (%) ([6]; 25 mg/kg intragastric): 65%; Tumor inhibition rate (%) ([6]; 50 mg/kg intragastric): 90%; tumor size course [6]: tendency to shrink; LD50 [7]: 1228 mg/kg
"COc1ccc(/C=C\c2cc(OC)c(OC)c(OC)c2)cc1OC(=O)Cn1cc(F)c(=O)[nH]c1=O [Compound Ii, (Z)-2-methoxy-5-(3,4,5-trimethoxystyryl)-phenyl-2-(5-fluoro-2,4-dioxo-3,4-dihydropyrimidin-1(2H)-yl)acetate]",,,,,,"IC50 [1, 10]: 0.0314 µM; IC50 [2]: < 0.0003 µM; IC50 [3]: < 0.0003 µM; IC50 [4]: 0.0228 µM; Tumor inhibition rate (%) ([6]; 25 mg/kg intragastric): 62%; Tumor inhibition rate (%) ([6]; 50 mg/kg intragastric): 85%; tumor size course [6]: tendency to shrink; LD50 [7]: 1059 mg/kg; IC50 [5]: 0.4 µM"
"COc1ccc(/C=C\c2cc(OC)c(OC)c(OC)c2)cc1OC(=O)CCCn1cc(F)c(=O)[nH]c1=O [Compound Im, (Z)-2-methoxy-5-(3,4,5-trimethoxystyryl)-phenyl-4-(5-fluoro-2,4-dioxo-3,4-dihydropyrimidin-1(2H)-yl)butanoate]",0.03,,,,,
"O=c1[nH]cc(F)c(=O)[nH]1 [Compound 5-FU, 5-fluorouracil, reference compound]",0.113,34.9,62.5,0.004,97,"IC50 [1, 9]: 0.113 µM"
"COc1ccc(/C=C\c2cc(OC)c(OC)c(OC)c2)cc1NC(=O)Cn1cc(F)c(=O)[nH]c1=O [Compound Ia, (Z)-2-(5-fluoro-2,4-dioxo-3,4-dihydropyrimidin-1(2H)-yl)-N-(2-methoxy-5-(3,4,5-trimethoxystyryl)-phenyl)acetamide]",0.046,27.5,64.2,0.0124,112,
"COc1ccc(CCc2cc(OC)c(OC)c(OC)c2)cc1O [Erianin, reference compound]",,,,,,LD50 [7]: 2531 mg/kg

# Further lines, with some results ahead:
"IC50 [1, 8] [µM]",IC50 ([2]; Homo sapiens) [µM],IC50 ([3]; Homo sapiens) [µM],IC50 ([4]; Homo sapiens) [µM],IC50 ([5]; Homo sapiens) [µM],Structure (SMILES),other results
0.0288,,,,,"COc1ccc(CCc2cc(OC)c(OC)c(OC)c2)cc1NC(=O)CCCn1cc(F)c(=O)[nH]c1=O [Compound If, 4-(5-fluoro-2,4-dioxo-3,4-dihydropyrimidin-1(2H)-yl)-N-(5-(3,4,5-trimethoxyphenethyl)-2-methoxyphenyl)-butanamide]",
0.0343,0.0003,0.609,0.0017,2.57,"CCOc1ccc(CCc2cc(OC)c(OC)c(OC)c2)cc1OC(=O)CCn1cc(F)c(=O)[nH]c1=O [Compound Io, 5-(3,4,5-trimethoxyphenethyl)-2-ethoxyphenyl-3-(5-fluoro-2,4-dioxo-3,4-dihydropyrimidin-1(2H)-yl)propanoate]",
0.0471,59.9,25.8,39.4,60.2,"CCOc1ccc(CCc2cc(OC)c(OC)c(OC)c2)cc1NC(=O)Cn1cc(F)c(=O)[nH]c1=O [Compound Ig, N-(5-(3,4,5-trimethoxyphenethyl)-2-ethoxyphenyl)-2-(5-fluoro-2,4-dioxo-3,4-dihydropyrimidin-1(2H)-yl)acetamide]",
0.029,57.9,48.5,150,122,"COc1ccc(C=Cc2cc(OC)c(OC)c(OC)c2)cc1NC(=O)CCn1cc(F)c(=O)[nH]c1=O [Compound Ic, 3-(5-fluoro-2,4-dioxo-3,4-dihydropyrimidin-1(2H)-yl)-N-(5-(3,4,5-trimethoxystyryl)-2-methoxyphenyl)-propanamide]",proliferation inhibitory activity on Hela compared to 5-fluorouracil ([1]; ratio to 5-fluorouracil): 4 times; proliferation inhibitory activity on Hela compared to CA4 ([1]; ratio to CA4): 14 times
> 0.37,15.2,23.2,171,60.6,"CCOc1ccc(CCc2cc(OC)c(OC)c(OC)c2)cc1NC(=O)CCn1cc(F)c(=O)[nH]c1=O [Compound Ih, N-(5-(3,4,5-trimethoxyphenethyl)-2-ethoxyphenyl)-3-(5-fluoro-2,4-dioxo-3,4-dihydropyrimidin-1(2H)-yl)propanamide]",
0.04,4.26,19.3,468,102,"CCOc1ccc(CCc2cc(OC)c(OC)c(OC)c2)cc1OC(=O)Cn1cc(F)c(=O)[nH]c1=O [Compound In, 5-(3,4,5-trimethoxyphenethyl)-2-ethoxyphenyl 2-(5-fluoro-2,4-dioxo-3,4-dihydropyrimidin-1(2H)-yl)acetate]",
0.0688,,,,,"COc1ccc(C=Cc2cc(OC)c(OC)c(OC)c2)cc1NC(=O)CCCn1cc(F)c(=O)[nH]c1=O [Compound Ie, 4-(5-fluoro-2,4-dioxo-3,4-dihydropyrimidin-1(2H)-yl)-N-(5-(3,4,5-trimethoxystyryl)-2-methoxyphenyl)-butanamide]",

# From patent publication US11279678B2 (SHANGHAI ECUST BIOMEDICINE CO., LTD., priority 2017, dated 2022)
